These are literature values, as cited in patent publication US6818426B2 (Daicel Chemical Industries, Ltd., priority 2000, dated 2004).

The structures appear in SMILES notation.

The target in data set [1] is glycerol dehydrogenase produced by Escherichia coli (Escherichia coli W-1485) (Escherichia coli, UniProt P0A9S5). The following applies: J. Biol. Chem., 259:2124-2129, 1984; cited from earlier work.
The target in data set [2] is (R)-2,3-butanediol dehydrogenase derived from Saccharomyces cerevisiae (Saccharomyces cerevisiae, UniProt P39714). The following applies: Arch. Microbiol., 154:267-273, 1990; cited from earlier work.
Chain of (R)-2,3-butanediol dehydrogenase derived from Saccharomyces cerevisiae (P39714 whole entry): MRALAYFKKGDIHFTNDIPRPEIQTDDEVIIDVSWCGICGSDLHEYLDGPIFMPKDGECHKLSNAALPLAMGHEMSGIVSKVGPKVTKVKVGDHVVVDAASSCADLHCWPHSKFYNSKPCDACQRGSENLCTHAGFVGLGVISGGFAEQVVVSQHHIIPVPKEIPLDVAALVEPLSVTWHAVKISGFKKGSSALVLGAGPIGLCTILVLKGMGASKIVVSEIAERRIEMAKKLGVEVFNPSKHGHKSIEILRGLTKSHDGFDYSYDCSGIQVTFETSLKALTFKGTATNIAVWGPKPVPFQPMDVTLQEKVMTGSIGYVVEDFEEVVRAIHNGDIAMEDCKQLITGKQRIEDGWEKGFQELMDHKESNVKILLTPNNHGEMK

Chain of glycerol dehydrogenase produced by Escherichia coli (Escherichia coli W-1485) (P0A9S5 whole entry): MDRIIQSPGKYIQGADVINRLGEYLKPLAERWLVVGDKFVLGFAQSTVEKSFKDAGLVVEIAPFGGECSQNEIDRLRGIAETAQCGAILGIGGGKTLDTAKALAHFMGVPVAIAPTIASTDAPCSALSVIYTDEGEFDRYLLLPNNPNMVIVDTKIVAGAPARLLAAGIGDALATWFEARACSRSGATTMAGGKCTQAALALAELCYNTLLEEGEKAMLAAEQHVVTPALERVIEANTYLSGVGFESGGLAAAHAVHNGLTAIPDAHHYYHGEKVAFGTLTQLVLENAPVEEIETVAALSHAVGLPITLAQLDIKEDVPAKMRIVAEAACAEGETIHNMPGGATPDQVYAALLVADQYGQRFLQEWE

`CC(O)C(C)O` (racemic) [DL-2,3-butanediol]: the Vmax in data set [1] is listed as 21.2 U/mg protein. Further, the dehydrogenase activity entry in data set [2] is “about 20.3 U/mg protein”.
